From patent US9828339B2, “Biphenyl derivatives and methods for preparing same” (DONG-A ST CO., LTD, priority 2013, dated 2017)

Experiments:
[1] = target: T1, human muscarinic M3 receptor (Homo sapiens (Human), UniProt P20309); assay: Binding assay on human muscarinic M3 receptor ([3H]-methyl scopolamine displacement); settings: membranes overexpressing human M3 receptor, Ki from IC50 by Cheng-Prusoff, read-out: Binding Affinity to M3 Receptor, Ki
Method in brief: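 Displacement of [3H]-methyl scopolamine from membranes overexpressing human M3, in Tris-HCl, 25 °C, 120 min; filter-bound radioactivity counted. Nonspecific binding with 5 μM atropine; Ki from IC50 via Cheng-Prusoff.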

[2] = target: T1, human muscarinic M3 receptor; assay: Antagonism assay on human muscarinic M3 receptor (carbachol-induced intracellular calcium, FLIPR Calcium 5, transfected Cos-7 cells); format: cell-based; settings: functional inhibitory constant; carbachol-induced intracellular calcium in Cos-7 cells transfected with human M3 receptor
Method: [Experimental Example 2] Antagonism Assay on Human Muscarinic M3 Receptor
The antagonism assay for various compounds of the present invention was conducted on antagonism to human M3 receptor in Cos-7 cells that was transfected with plasmid coding human muscarinic M3 receptor. Test compounds in various concentrations were pre-treated to the cells for 3 minutes, and then the changes of intracellular calcium were measured after treating the same with carbachol (i.e. muscarinic receptor agonist). The FLIPR® Calcium 5 assay (Molecular Devices) and Flex3 device (Molecular Devices) were used to measure concentration of calcium. Amounts of calcium before and after carbachol treatment were set as 0% and 100% respectively. Inhibition rates (%) by the compounds for increase in intracellular calcium by carbachol were calculated. The antagonistic potency of the test compounds on human muscarinic M3 receptor was calculated as the functional inhibitory constant (Ki), which can be calculated from concentration (IC50) of compound inhibiting 50% of activity of carbachol according to Cheng and Prusoff equation.

[3] = tested on: rhythmic bladder contractions; assay: Rhythmic bladder contractions in rats (in vivo); design: species or system rat; settings: 0.3 mpk, intravenous, female Sprague-Dawley rats; amplitude reduction of bladder contractions
Description: [Experimental Example 3] Experiment on Rhythmic Bladder Contractions in Rats (In Vivo)
Female Sprague-Dawley rat was halothane-anesthetized, and a polyethylene catheter was inserted through urethra lay down straight and fixed. Urine in bladder was excreted through the catheter by gently massaging abdomen of the rat, and then removed. A three-way stopcock was connected to the catheter and a pressure transducer was connected to one side of the three-way stopcock to measure pressure, and a syringe was installed at the other side to inject 37° C. of saline solution. The saline solution was slowly injected until regular bladder contractions occurred repeatedly. When regular bladder contractions occurred stably, test compounds were administered intravenously through the tail vein. Inhibitory effect of the test compounds was evaluated by measuring degree of amplitude reduction of bladder contractions.

T1 sequence (P20309 whole entry): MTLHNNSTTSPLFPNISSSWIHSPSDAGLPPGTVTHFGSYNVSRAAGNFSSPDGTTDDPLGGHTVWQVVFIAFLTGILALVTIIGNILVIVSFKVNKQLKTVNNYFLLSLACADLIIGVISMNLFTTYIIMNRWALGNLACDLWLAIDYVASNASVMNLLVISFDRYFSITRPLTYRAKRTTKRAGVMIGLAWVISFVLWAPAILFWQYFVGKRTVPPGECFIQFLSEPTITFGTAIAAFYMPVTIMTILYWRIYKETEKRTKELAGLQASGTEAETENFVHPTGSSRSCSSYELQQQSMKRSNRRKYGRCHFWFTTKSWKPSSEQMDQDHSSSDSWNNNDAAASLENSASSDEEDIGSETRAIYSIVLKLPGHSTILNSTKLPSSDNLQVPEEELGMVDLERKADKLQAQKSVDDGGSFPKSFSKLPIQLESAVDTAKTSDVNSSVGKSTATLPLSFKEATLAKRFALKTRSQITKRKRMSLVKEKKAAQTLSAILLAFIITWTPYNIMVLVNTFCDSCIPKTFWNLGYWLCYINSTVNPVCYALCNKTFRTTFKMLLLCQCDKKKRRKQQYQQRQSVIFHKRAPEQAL

| Compound | Ki [1] [nM] | Ki [2] [nM] | Inhibition of Rhythmic bladder contraction in rats [3] [%] |
| --- | --- | --- | --- |
| CN1CCCC1CCOC(=O)Nc1ccccc1-c1cccc(Cl)c1 (stereo not drawn) [Example 8, 2-(1-methylpyrrolidin-2-yl)ethyl(3′-chloro-[1,1′-biphenyl]-2-yl)carbamate] | 1.33 | 3.02 | 23.2 ± 2.3 |
| CN1CC[C@@H](COC(=O)Nc2ccc(Cl)cc2-c2ccc(F)c(Cl)c2)C1 [Example 146, (R)-(1-methylpyrrolidin-3-yl)methyl(3′,5-dichloro-4′-fluoro-[1,1′-biphenyl]-2-yl)carbamate] | 6.85 | 1.57 | 8.2 ± 2.9 |
| CN1CC[C@@H](COC(=O)Nc2ccc(Cl)cc2-c2cccc(Cl)c2)C1 [Example 145, (R)-(1-methylpyrrolidin-3-yl)methyl(3′,5-dichloro-[1,1′-biphenyl]-2-yl)carbamate] | 14.3 | 2.97 | 13.1 ± 3.0 |
| CN1CCCC1CCOC(=O)Nc1ccc(F)cc1-c1cc(F)cc(Cl)c1 (stereo not drawn) [Example 52, 2-(1-methylpyrrolidin-2-yl)ethyl (3′-chloro-5,5′-difluoro-[1,1′-biphenyl]-2-yl)carbamate] | 10 | 1.22 | 10.8 ± 0.8 |
| Cc1ccc(-c2cc(F)ccc2NC(=O)OCCC2CCCN2C)cc1C (stereo not drawn) [Example 59, 2-(1-methylpyrrolidin-2-yl)ethyl(5-fluoro-3′,4′-dimethyl-[1,1′-biphenyl]-2-yl)carbamate] | 6.42 | 2.38 | 11.6 ± 1.9 |
| CN1CCCC1CCOC(=O)Nc1ccc(Cl)cc1-c1cccc(Cl)c1 (stereo not drawn) [Example 70, 2-(1-Methylpyrrolidin-2-yl)ethyl(3′,5-dichloro-[1,1′-biphenyl]-2-yl)carbamate] | 8.17 | 1.95 | 9.7 ± 4.1 |
| CN1CCCC1CCOC(=O)Nc1ccccc1-c1cccc(F)c1 (stereo not drawn) [Example 4, 2-(1-methylpyrrolidin-2-yl)ethyl(3′-fluoro-[1,1′-biphenyl]-2-yl)carbamate] | 2.93 | 3.41 | 22.3 ± 4.9 |
| CN1CC[C@H](COC(=O)Nc2ccc(F)cc2-c2cc(F)cc(Cl)c2)C1 [Example 129, (S)-(1-methylpyrrolidin-3-yl)methyl(3′-chloro-5,5′-difluoro-[1,1′-biphenyl]-2-yl)carbamate] | 12.6 | 6.24 | 15.7 ± 1.4 |
| CN1CCC[C@H]1COC(=O)Nc1cc(F)c(F)cc1-c1ccc(F)c(Cl)c1 [Example 181, (S)-(1-methylpyrrolidin-2-yl)methyl(3′-chloro-4,4′,5-trifluoro-[1,1′-biphenyl]-2-yl)carbamate] | 3.29 | 0.29 | 18.1 ± 2.6 |
| CN1CC[C@@H](COC(=O)Nc2ccccc2-c2cccc(Cl)c2)C1 [Example 117, (R)-(1-methylpyrrolidin-3-yl)methyl(3′-chloro-[1,1′-biphenyl]-2-yl)carbamate] | 1.6 | 0.34 | 15.4 ± 0.1 |
| CN1CCCC1CCOC(=O)Nc1ccccc1-c1cc(F)cc(F)c1 (stereo not drawn) [Example 2, 2-(1-methylpyrrolidin-2-yl)ethyl(3′,5′-difluoro-[1,1′-biphenyl]-2-yl)carbamate] | 8.69 | 6.02 | 20.1 ± 3.1 |
| Cc1ccc(NC(=O)OC[C@@H]2CCCN2C)c(-c2cccc(F)c2)c1 [Example 207, (S)-(1-methylpyrrolidin-2-yl)methyl(3′-fluoro-5-methyl-[1,1′-biphenyl]-2-yl)carbamate] | 13.4 | 3.52 | 18.2 ± 3.7 |
| CN1CC[C@@H](COC(=O)Nc2ccc(F)cc2-c2cc(F)cc(F)c2)C1 [Example 95, (R)-(1-methylpyrrolidin-3-yl)methyl (3′,5,5′-trifluoro-[1,1′-biphenyl]-2-yl)carbamate] | 6.27 | 0.75 | 15.7 ± 0.8 |
| CN1CCC[C@H]1COC(=O)Nc1ccc(F)cc1-c1cccc(C(F)(F)F)c1 [Example 180, (S)-(1-methylpyrrolidin-2-yl)methyl(5-fluoro-3′-(trifluoromethyl)-[1,1′-biphenyl]-2-yl)carbamate] | 9.15 |  | 6.3 ± 1.3 |
| CN1CCC[C@H]1COC(=O)Nc1ccccc1-c1cccc(Cl)c1 [Example 165, (S)-(1-methylpyrrolidin-2-yl)methyl(3′-chloro-[1,1′-biphenyl]-2-yl)carbamate] | 0.63 |  | 34.5 ± 2.5 |
| CN1CC[C@H](COC(=O)Nc2ccc(F)cc2-c2ccc(F)cc2)C1 [Example 124, (S)-(1-methylpyrrolidin-3-yl)methyl(4′,5-difluoro-[1,1′-biphenyl]-2-yl)carbamate] | 8.12 | 2.86 | 21.2 ± 0.7 |
| Cc1cccc(-c2cc(F)ccc2NC(=O)OC[C@@H]2CCN(C)C2)c1 [Example 192, (R)-(1-methylpyrrolidin-3-yl)methyl(5-fluoro-3′-methyl-[1,1′-biphenyl]-2-yl)carbamate] | 4.6 |  | 18.6 ± 3.6 |
| CN1CCC[C@H]1COC(=O)Nc1ccccc1-c1ccc(Cl)c(Cl)c1 [Example 166, (S)-(1-methylpyrrolidin-2-yl)methyl(3′,4′-dichloro-[1,1′-biphenyl]-2-yl)carbamate] | 9.04 | 1.33 | 10.2 ± 1.7 |
| CN1CC[C@@H](COC(=O)Nc2ccc(F)cc2-c2cccc(F)c2)C1 [Example 194, (R)-(1-methylpyrrolidin-3-yl)methyl(3′,5-difluoro-[1,1′-biphenyl]-2-yl)carbamate] | 6.3 | 0.58 | 24.6 ± 2.6 |
| CN1CC[C@H](COC(=O)Nc2ccc(F)cc2-c2ccc(Cl)c(Cl)c2)C1 [Example 128, (S)-(1-methylpyrrolidin-3-yl)methyl(3′,4′-dichloro-5-fluoro-[1,1′-biphenyl]-2-yl)carbamate] | 3.41 | 1.2 | 15.1 ± 3.4 |
| CN1CCCC1CCOC(=O)Nc1ccc(Cl)cc1-c1ccc(F)c(Cl)c1 (stereo not drawn) [Example 73, 2-(1-Methylpyrrolidin-2-yl)ethyl(3′,5-dichloro-4′-fluoro-[1,1′-biphenyl]-2-yl)carbamate] | 4.84 | 4.75 | 10.0 ± 1.0 |
| CN1CC[C@@H](COC(=O)Nc2ccc(F)cc2-c2cc(F)cc(Cl)c2)C1 [Example 142, (R)-(1-methylpyrrolidin-3-yl)methyl(3′-chloro-5,5′-difluoro-[1,1′-biphenyl]-2-yl)carbamate] | 4.88 | 1.04 | 15.1 ± 3.4 |
| CN1CC[C@H](COC(=O)Nc2ccc(F)cc2-c2cccc(F)c2)C1 [Example 108, (S)-(1-methylpyrrolidin-3-yl)-methyl(3′,5-difluoro-[1,1′-biphenyl]-2-yl)carbamate] | 3.95 |  | 18.1 ± 1.4 |
| Cc1cccc(-c2ccccc2NC(=O)OC[C@H]2CCN(C)C2)c1 [Example 101, (S)-(1-methylpyrrolidin-3-yl)-methyl(3′-methyl-[1,1′-biphenyl]-2-yl)carbamate] | 3.79 |  | 20.1 ± 1.7 |
| CN1CCCC1CCOC(=O)Nc1ccccc1-c1cc(Cl)cc(Cl)c1 (stereo not drawn) [Example 9, 2-(1-methylpyrrolidin-2-yl)ethyl(3′,5′-dichloro-[1,1′-biphenyl]-2-yl)carbamate] | 9.1 |  | 9.6 ± 1.6 |
| CN1CCCC1CCOC(=O)Nc1ccccc1-c1ccccc1 (stereo not drawn) [Example 6, 2-(1-methylpyrrolidin-2-yl)ethyl[1,1′-biphenyl]-2-ylcarbamate] | 2.47 |  | 28.5 ± 4.6 |
| CN1CCC[C@H]1COC(=O)Nc1ccc(F)cc1-c1cc(F)cc(F)c1 [Example 172, (S)-(1-methylpyrrolidin-2-yl)methyl(3′,5,5′-trifluoro-[1,1′-biphenyl]-2-yl)carbamate] | 6.15 |  | 12.4 ± 2.7 |
| CN1CCC[C@H]1COC(=O)Nc1cc(F)ccc1-c1ccccc1 [Example 204, (S)-(1-methylpyrrolidin-2-yl)methyl (4-fluoro-[1,1′-biphenyl]-2-yl)carbamate] | 3.53 |  | 23.3 ± 6.6 |
